Target: human LPA1 receptor (Homo sapiens (Human), UniProt Q92633)
Experiment: Beta-arrestin recruitment assay to determine IC50 values for human LPAR1
Format: cell-based
Details: antagonist mode, Tango EDG2-bla U2OS cells, LPA 18:1 500 nM final
Procedure, shortened: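 Tango EDG2-bla U2OS cells: LPA-driven beta-arrestin/TEV protease recruitment releases Gal4-VP16, inducing beta-lactamase reporter read with live-cell substrate. Cells seeded 20 h at 37 °C beforehand. IC50 is antagonist concentration inhibiting 50% of maximal response.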

Chain of human LPA1 receptor (Q92633 whole entry): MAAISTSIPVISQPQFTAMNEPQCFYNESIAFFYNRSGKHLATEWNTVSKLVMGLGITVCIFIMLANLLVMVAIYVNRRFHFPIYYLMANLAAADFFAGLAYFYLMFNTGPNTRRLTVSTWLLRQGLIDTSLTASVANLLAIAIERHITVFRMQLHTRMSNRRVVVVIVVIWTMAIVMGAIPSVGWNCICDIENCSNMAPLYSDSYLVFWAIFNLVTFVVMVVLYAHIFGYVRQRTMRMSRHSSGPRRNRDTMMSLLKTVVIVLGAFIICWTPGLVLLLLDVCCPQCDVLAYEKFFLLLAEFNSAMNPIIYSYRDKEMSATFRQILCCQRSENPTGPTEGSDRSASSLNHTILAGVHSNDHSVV

Cc1ccc(NC(=O)C2(c3ccccc3C(C)C)CN(C[C@@H](O)CN(C)C)C2)c(OC(F)F)n1 [Ex 11-85, (S)-N-(2-(difluoromethoxy)-6-methylpyridin-3-yl)-1-(3-(dimethylamino)-2-hydroxypropyl)-3-(2-isopropylphenyl)azetidine-3-carboxamide]
IC50: 191 nM

Cc1ccc(NC(=O)C2(c3ccccc3C(C)C)CN(C(=O)c3cn[nH]c3)C2)c(OC(F)F)n1 [Ex 12-15, N-(2-(difluoromethoxy)-6-methylpyridin-3-yl)-3-(2-isopropylphenyl)-1-(1H-pyrazole-4-carbonyl)azetidine-3-carboxamide]
IC50: 36 nM

Cc1ccc(NC(=O)C2(c3ccccc3C(C)C)CN(C(=O)CC3CCNCC3)C2)c(OC(F)F)n1 [Ex 12-138, N-(2-(difluoromethoxy)-6-methylpyridin-3-yl)-3-(2-isopropylphenyl)-1-(2-(piperidin-4-yl)acetyl)azetidine-3-carboxamide]
IC50: 43 nM

Cc1ccc(NC(=O)C2(c3ccccc3C(C)C)CN(Cc3ccc(C(=O)O)nc3)C2)c(OC(F)F)n1 [Ex 11-53, 5-((3-((2-(difluoromethoxy)-6-methylpyridin-3-yl)carbamoyl)-3-(2-isopropylphenyl)azetidin-1-yl)methyl)picolinic acid]
IC50: 115 nM

Cc1ccc(NC(=O)C2(c3ccccc3C(C)C)CCN(C(=O)CNCCO)CC2)c(OC(F)F)n1 [Ex 12-50, N-(2-(difluoromethoxy)-6-methylpyridin-3-yl)-1-((2-hydroxyethyl)glycyl)-4-(2-isopropylphenyl)piperidine-4-carboxamide]
IC50: 9 nM

Cc1ccc(NC(=O)C2(c3ccccc3C(C)C)CN(C(=O)CCCc3nnn[nH]3)C2)c(OC(F)F)n1 [Ex 12-30, 1-(4-(1H-tetrazol-5-yl)butanoyl)-N-(2-(difluoromethoxy)-6-methylpyridin-3-yl)-3-(2-isopropylphenyl)azetidine-3-carboxamide]
IC50: 25 nM

Cc1ccc(NC(=O)C2(c3ccccc3C(C)C)CN(C(=O)CC3(C(=O)O)CCN(C)CC3)C2)c(OC(F)F)n1 [Ex 12-124, 4-(2-(3-((2-(difluoromethoxy)-6-methylpyridin-3-yl)carbamoyl)-3-(2-isopropylphenyl)azetidin-1-yl)-2-oxoethyl)-1-methylpiperidine-4-carboxylic acid]
IC50: 56 nM

CC(=O)NS(=O)(=O)N1CC(C(=O)Nc2cccnc2OC(F)F)(c2ccccc2C(C)C)C1 [Ex 16-2, 1-(N-acetylsulfamoyl)-N-(2-(difluoromethoxy)pyridin-3-yl)-3-(2-isopropylphenyl)azetidine-3-carboxamide]
IC50: 158 nM

Cc1ccc(NC(=O)C2(c3ccccc3C(C)C)CN(C(=O)CC3(C(=O)O)CCOCC3)C2)c(OC(F)F)n1 [Ex 12-122, 4-(2-(3-((2-(difluoromethoxy)-6-methylpyridin-3-yl)carbamoyl)-3-(2-isopropylphenyl)azetidin-1-yl)-2-oxoethyl)tetrahydro-2H-pyran-4-carboxylic acid]
IC50: 15 nM

5-(3-((2-(difluoromethoxy)-6-methylpyridin-3-yl)carbamoyl)-3-(2-isopropylphenyl)azetidin-1-yl)-2-methylpentan-2-yl acetate [Ex 11-65]
IC50: 315 nM

CC(C)c1ccccc1C1(C(=O)Nc2cc(F)cnc2OC(F)F)CNC1 [Ex 8, N-(2-(difluoromethoxy)-5-fluoropyridin-3-yl)-3-(2-isopropylphenyl)azetidine-3-carboxamide]
IC50: 338 nM

Cc1ccc(NC(=O)C2(c3ccccc3C(C)C)CN(c3ncc(C(=O)O)n3C)C2)c(OC(F)F)n1 [Ex 18-36, 2-(3-((2-(difluoromethoxy)-6-methylpyridin-3-yl)carbamoyl)-3-(2-isopropylphenyl)azetidin-1-yl)-1-methyl-1H-imidazole-5-carboxylic acid]
IC50: 16 nM

Cc1ccc(NC(=O)C2(c3ccccc3C3CCCCC3)CN(C(=O)CC(C)(C)C(=O)O)C2)c(OC(F)F)n1 [Ex 31-5, 4-(3-(2-cyclohexylphenyl)-3-((2-(difluoromethoxy)-6-methylpyridin-3-yl)carbamoyl)azetidin-1-yl)-2,2-dimethyl-4-oxobutanoic acid]
IC50: 14 nM
